We go through 35 molecules from US9255103B2, “Substituted pyrazolo[1,5-a]pyrazines as mGluR5 receptor modulators” (Vanderbilt University, priority 2010, dated 2016).

By Emax is commonly meant the greatest response seen or fitted, relative to the assay's reference. Broadly, the EC50 is the midpoint of the concentration-response curve. The term pEC50 denotes the negative decadic logarithm of the EC50, by convention in mol/L. As usually defined, the melting point is the temperature of the solid-liquid transition.

One series has as its target human mGluR5a receptor (Homo sapiens, UniProt P41594). In words: Cell-based functional Ca2+ mobilization assay (FDSS), potentiation of glutamate EC20 response in H10H cell line. The following applies: for Emax: percent of maximal glutamate response, human mGluR5 HEK cells; for EC50 / pEC50: HEK cells transfected with human mGluR5 (H10H), presence of glutamate EC20; for EC50: read-out: EC50; for pEC50: concentration in mol/L. The procedure: Human embryonic kidney (HEK) cells transfected with rat mGluR5 were plated in clear bottom assay plates for assay in a Functional Drug Screening System (FDSS). In the alternative assay, HEK cells transfected with human mGluR5 (H10H cell line) were plated for assay in the FDSS. […] The cells were loaded with a Ca^2+-sensitive fluorescent dye (e.g., Fluo-4), and the plates were washed and placed in the FDSS instrument. After establishment of a fluorescence baseline for twelve seconds, the compounds of the present invention were added to the cells, and the response in cells was measured. Alternatively, in various further aspects, after establishment of a fluorescence baseline for about three seconds, the compounds of the present invention were added to the cells, and the response in cells was measured. Five minutes later, an mGluR5 agonist (e.g., glutamate, 3,5-dihydroxyphenylglycine, or quisqualate) was added to the cells, and the response of the cells was measured.
The above described assay operated in two modes. In the first mode, a range of concentrations of the present compounds were added to cells, followed by a single fixed concentration of agonist. If a compound acted as a potentiator, an EC50 value for potentiation and a maximum extent of potentiation by the compound at this concentration of agonist was determined by non-linear curve fitting. In the second mode, several fixed concentrations of the present compounds were added to various wells on a plate, followed by a range of concentrations of agonist for each concentration of present compound; the EC50 values for the agonist at each concentration of compound were determined by non-linear curve fitting. A decrease in the EC50 value of the agonist with increasing concentrations of the present compounds (a leftward shift of the agonist concentration-response curve) is an indication of the degree of mGluR5 potentiation at a given concentration of the present compound. An increase in the EC50 value of the agonist with increasing concentrations of the present compounds (a rightward shift of the agonist concentration-response curve) is an indication of the degree of mGluR5 antagonism at a given concentration of the present compound. The second mode also indicates whether the present compounds also affect the maximum response to mGluR5 to agonists.
The mGluR5 activity was determined using the metabotropic glutamate receptor activity assays in human embryonic kidney cells as described herein, wherein the human embryonic kidney cells were transfected with human mGluR5. The compounds in Table 1 were synthesized with methods identical or analogous to those shown herein. The requisite starting materials were commercially available, described in the literature, or readily synthesized by one skilled in the art of organic synthesis.
Human mGluR5a cDNA in pCMV6-XL6 mammalian expression plasmid was purchased from OriGene Technologies, Inc. (catalogue number SC326357) and subcloned into pcDNA3.1(−). Human embryonic kidney (HEK)293A cells were then transfected with human mGluR5a pcDNA3.1(−) using LipofectAmine2000 (Invitrogen) and monoclones were selected and tested for functional response using a Ca^2+ mobilization assay. Monoclones were named for the species (“H” for human) plus the location on the plate (e.g. “10H”).
HEK cells transfected with the human mGluR5a receptor (H10H cell line) were plated at 15,000 cells/well in clear-bottomed poly-D-lysine-coated assay plates (BD Falcon) in glutamate-glutamine-free growth medium and incubated overnight at 37° C. and 5% CO2. The following day, the growth medium was removed and the cells were washed with assay buffer containing 1× Hank's balanced salt solution (Invitrogen, Carlsbad, Calif.), 20 mM HEPES, 2.5 mM probenecid, pH 7.4 and left with 20 μL of this reagent.
On the technique in general: Calcium assays in cells follow changes in intracellular calcium, usually with a dye or a luminescent sensor.

Setting [1] is: HEK293, maximum average response at a single concentration, read-out: Emax.
[2] abbreviates: maximum average response at a single concentration.

Where two headings read alike, the source gives them in different places.

human mGluR5a receptor, sequence (P41594 21-1180 isoform P41594-2 limits assumed): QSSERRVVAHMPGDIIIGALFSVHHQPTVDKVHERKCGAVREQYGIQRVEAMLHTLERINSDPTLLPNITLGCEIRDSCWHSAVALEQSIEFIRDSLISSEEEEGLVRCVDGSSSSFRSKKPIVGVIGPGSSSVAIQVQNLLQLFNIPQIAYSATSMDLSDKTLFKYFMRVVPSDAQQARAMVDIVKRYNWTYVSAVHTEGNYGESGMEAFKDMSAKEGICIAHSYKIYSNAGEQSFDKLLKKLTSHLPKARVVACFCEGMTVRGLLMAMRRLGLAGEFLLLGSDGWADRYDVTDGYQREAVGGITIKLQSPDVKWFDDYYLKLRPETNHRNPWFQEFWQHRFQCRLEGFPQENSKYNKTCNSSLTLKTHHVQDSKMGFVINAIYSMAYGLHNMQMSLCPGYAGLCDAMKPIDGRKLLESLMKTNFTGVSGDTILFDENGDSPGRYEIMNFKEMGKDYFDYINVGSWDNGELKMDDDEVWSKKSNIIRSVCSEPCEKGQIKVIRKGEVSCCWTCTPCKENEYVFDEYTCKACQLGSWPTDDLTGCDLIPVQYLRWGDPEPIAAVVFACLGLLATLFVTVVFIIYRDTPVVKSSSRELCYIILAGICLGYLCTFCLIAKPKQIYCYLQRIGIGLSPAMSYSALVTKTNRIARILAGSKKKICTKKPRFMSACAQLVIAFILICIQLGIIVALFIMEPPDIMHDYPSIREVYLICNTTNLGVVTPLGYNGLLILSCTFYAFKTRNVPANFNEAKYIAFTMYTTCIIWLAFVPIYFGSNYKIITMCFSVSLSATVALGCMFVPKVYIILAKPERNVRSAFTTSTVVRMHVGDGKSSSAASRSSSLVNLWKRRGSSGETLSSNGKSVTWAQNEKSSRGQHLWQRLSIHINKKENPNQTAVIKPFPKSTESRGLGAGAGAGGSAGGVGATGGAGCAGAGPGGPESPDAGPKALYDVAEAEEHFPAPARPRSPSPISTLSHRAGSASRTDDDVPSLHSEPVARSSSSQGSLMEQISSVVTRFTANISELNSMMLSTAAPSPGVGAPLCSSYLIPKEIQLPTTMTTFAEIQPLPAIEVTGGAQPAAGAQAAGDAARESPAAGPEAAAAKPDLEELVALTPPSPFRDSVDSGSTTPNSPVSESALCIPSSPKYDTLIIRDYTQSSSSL

`CC(Oc1ccccc1)c1cc2n(n1)CCN(C(=O)c1ccc(F)cc1)C2` (racemic) [Compound 54]: the Emax on human mGluR5a receptor (setting [1]) amounted to 25%. Moreover, at human mGluR5a receptor, the EC50 is above 30200 nM.
`O=C(c1cccc(F)c1F)N1CCn2nc(COc3ccccc3)cc2C1` [Compound 7]: on human mGluR5a receptor (setting [1]), the maximum response (Emax) was 58%. Besides, on human mGluR5a receptor, the pEC50 turned out to be 6.39 and the EC50 was determined as 406 nM.
Molecule `O=C(c1ncccc1Cl)N1CCn2nc(COc3ccccc3)cc2C1` [Compound 29] gave a melting point of 60 °C. Further, at human mGluR5a receptor (setting [1]), the maximal effect (Emax) came to 47%. Besides, at human mGluR5a receptor, the pEC50 is below 5.00 and the EC50 was above 10000 nM.
For the molecule `O=C(c1ccc(F)cc1F)N1CCn2nc(COc3ccccc3)cc2C1` [Compound 8], the Emax at human mGluR5a receptor (setting [1]) came out at 78%. Also, at human mGluR5a receptor, the pEC50 is on record as 6.68 and the EC50 stood at 208 nM.
The matching figures for `Cc1ncc(C(=O)N2CCn3nc(COc4cccc(F)c4)cc3C2)cn1` [Compound 37]: 12%, below 4.52 and above 30200 nM.
In the case of `Cc1ccc(C(=O)N2CCn3nc(COc4cccc(F)c4)cc3C2)cn1` [Compound 15], the melting point came out at 88.2 °C. For the same molecule, the Emax on human mGluR5a receptor (setting [1]) amounted to 30%. Moreover, on human mGluR5a receptor, the negative logarithm of the EC50 (pEC50) is on record as below 4.52 and the EC50 is above 30200 nM.
For the molecule `O=C(c1cc(F)cc(F)c1)N1CCn2nc(COc3ccccc3)cc2C1` [Compound 5], the Emax on human mGluR5a receptor (setting [1]) was 50%. In addition, at human mGluR5a receptor, the pEC50 turned out to be 7.10 and the 50% effective concentration (EC50) turned out to be 79.6 nM.
In the case of `O=C(c1ccc(F)cc1)N1CCn2nc(COc3ccccc3)cc2C1C(F)(F)F` (racemic) [Compound 53], the melting point worked out at 53.1 °C. Moreover, at human mGluR5a receptor (setting [1]), the Emax was determined as 67%. Further, the 50% effective concentration (EC50) at human mGluR5a receptor came to 2630 nM.
Turning to `N#Cc1ccc(C(=O)N2CCn3nc(COc4ccccc4)cc3C2)cc1F` [Compound 27], the melting point came to 60.3 °C. In addition, the Emax on human mGluR5a receptor (setting [1]) came out at 23%. Also, on human mGluR5a receptor, the pEC50 is given as below 4.52 and the EC50 was above 30200 nM.
With `CC1CN(C(=O)c2ccc(F)cc2)Cc2cc(COc3ccccc3)nn21` (stereo not shown) [Compound 40], the Emax at human mGluR5a receptor (setting [1]) is 58%. Besides, at human mGluR5a receptor, the pEC50 is 6.15 and the EC50 came to 708 nM.
`CC1Cn2nc(COc3ccccc3)cc2CN1C(=O)c1cc(F)cc(C#N)c1` (stereo not shown) [Compound 51]: the Emax on human mGluR5a receptor (setting [1]) was 56%. At human mGluR5a receptor, the pEC50 was determined as 6.12 and the EC50 was 759 nM.
Turning to `O=C(c1ccnnc1)N1CCn2nc(COc3cccc(F)c3)cc2C1` [Compound 36], the melting point was 282.6 °C. Moreover, on human mGluR5a receptor (setting [1]), the Emax came to 39%. In addition, on human mGluR5a receptor, the pEC50 is recorded as below 5.00 and the EC50 was above 10000 nM.
In the same order, the values of `N#Cc1cccc(C(=O)N2CCn3nc(COc4cccc(F)c4)cc3C2)c1` [Compound 30] are 101.5 °C, 59%, 6.48 and 331 nM.
For the molecule `CC1Cn2nc(COc3ccccc3)cc2CN1C(=O)c1ccc(F)cc1` (racemic) [Compound 17], the maximal effect (Emax) on human mGluR5a receptor (setting [1]) is 81%. The EC50 at human mGluR5a receptor turned out to be 673 nM.
Regarding `O=C(c1ccc(F)cc1F)N1CCn2nc(COc3cccc(F)c3)cc2C1` [Compound 11], the melting point worked out at 79.7 °C. Besides, the maximum response (Emax) at human mGluR5a receptor (setting [1]) turned out to be 82%. For the same molecule, at human mGluR5a receptor, the negative logarithm of the EC50 (pEC50) is given as 6.56 and the EC50 stood at 273 nM.
In the same order, the values of `N#Cc1cc(F)cc(C(=O)N2CCn3nc(COc4ccccc4)cc3C2)c1` [Compound 26] are 109.8 °C, 52%, 7.08 and 83 nM.
For `CC1Cn2nc(COc3ccccc3)cc2CN1C(=O)c1cc(F)cc(C#N)c1` (stereo not shown) [Compound 52], on human mGluR5a receptor, the negative-log EC50 (pEC50) was below 5.00 and the EC50 was above 10000 nM. Besides, on human mGluR5a receptor (setting [2]), the Emax stood at 69%.
On to `O=C(c1cccc(F)c1)N1CCn2nc(COc3ccccc3)cc2C1` [Compound 3], for which, at human mGluR5a receptor (setting [1]), the Emax worked out at 66%. Further, on human mGluR5a receptor, the pEC50 is 6.77 and the 50% effective concentration (EC50) came to 169 nM.
Regarding `Cc1cccnc1C(=O)N1CCn2nc(COc3cccc(F)c3)cc2C1` [Compound 14], the melting point was determined as 125.4 °C. For the same molecule, the Emax at human mGluR5a receptor (setting [1]) was 51%. At human mGluR5a receptor, the negative logarithm of the EC50 (pEC50) was below 5.00 and the EC50 was above 10000 nM.
Consider `O=C(c1ccc(F)cc1)N1CCn2nc(COc3ccccc3)c(Cl)c2C1` [Compound 55], for which the melting point came to 136 °C. For the same molecule, at human mGluR5a receptor (setting [1]), the Emax was found to be 23%. Also, at human mGluR5a receptor, the negative logarithm of the EC50 (pEC50) amounted to 5.53 and the EC50 came out at 2950 nM.
For the molecule `Nc1c(COc2ccccc2)nn2c1CN(C(=O)c1ccc(F)cc1)CC2` [Compound 58], the maximum response (Emax) at human mGluR5a receptor (setting [1]) is 51%. At human mGluR5a receptor, the pEC50 was 5.34 and the EC50 was determined as 4570 nM.
In the same order, the values of `CC1Cn2nc(COc3ccccc3)cc2CN1C(=O)c1cccc(F)c1` (stereo not shown) [Compound 47] are 52%, 5.97 and 1070 nM.
On to `CC1CN(C(=O)c2ccc(F)cc2)Cc2cc(COc3ccccc3)nn21` (stereo not shown) [Compound 41], for which, at human mGluR5a receptor, the pEC50 turned out to be 6.79 and the EC50 came to 162 nM. Further, at human mGluR5a receptor (setting [2]), the Emax came to 74%.
For `N#Cc1cccc(C(=O)N2CCn3nc(COc4ccccc4)cc3C2)c1` [Compound 25], the Emax on human mGluR5a receptor (setting [1]) was 60%. Besides, at human mGluR5a receptor, the pEC50 is given as 6.34 and the EC50 was 457 nM.
The matching figures for `COc1c(COc2ccccc2)nn2c1CN(C(=O)c1ccc(F)cc1)CC2` [Compound 59]: 15%, 5.74 and 1820 nM.
In the same order, the values of `CC1CN(C(=O)c2cc(F)cc(C#N)c2)Cc2cc(COc3ccccc3)nn21` (stereo not shown) [Compound 44] are 66%, 6.16 and 692 nM.
For the molecule `CC1Cn2nc(COc3ccccc3)cc2CN1C(=O)c1cccc(F)c1` (stereo not shown) [Compound 48], on human mGluR5a receptor, the pEC50 was found to be 6.31 and the EC50 stood at 490 nM. In addition, the maximal effect (Emax) on human mGluR5a receptor (setting [2]) is given as 67%.
Regarding `O=C(c1ccccc1F)N1CCn2nc(COc3ccccc3)cc2C1` [Compound 2], the Emax at human mGluR5a receptor (setting [1]) worked out at 76%. For the same molecule, at human mGluR5a receptor, the pEC50 came to 6.70 and the EC50 stood at 201 nM.
The matching figures for `CC1(C)CN(C(=O)c2ccc(F)cc2)Cc2cc(COc3ccccc3)nn21` [Compound 18]: 66%, 6.59 and 256 nM.
`O=C(c1cccc(F)c1)N1CCn2nc(COc3cccc(F)c3)cc2C1` [Compound 10]: the Emax at human mGluR5a receptor (setting [1]) turned out to be 69%. Besides, on human mGluR5a receptor, the pEC50 is reported as 6.57 and the EC50 was 269 nM.
`O=C(c1ccc(F)cc1)N1CCn2nc(COc3ccc(F)cc3)cc2C1` [Compound 38]: the maximum response (Emax) at human mGluR5a receptor (setting [1]) is 58%. Moreover, at human mGluR5a receptor, the pEC50 was 6.53 and the EC50 came out at 295 nM.
The matching figures for `O=C(c1cnccn1)N1CCn2nc(COc3cccc(F)c3)cc2C1` [Compound 34]: 60%, 5.52 and 3020 nM.
On to `Cc1ncccc1C(=O)N1CCn2nc(COc3cccc(F)c3)cc2C1` [Compound 22], for which, at human mGluR5a receptor (setting [1]), the Emax was found to be 34%. Moreover, on human mGluR5a receptor, the pEC50 is given as 5.53 and the EC50 came to 2910 nM.
Consider `O=C(c1ccc(F)cc1)N1CCn2nc(COc3ccccc3)c(F)c2C1` [Compound 56], for which the Emax on human mGluR5a receptor (setting [1]) worked out at 62%. At human mGluR5a receptor, the pEC50 was 6.26 and the EC50 amounted to 550 nM.
On to `CC1CN(C(=O)c2cccc(F)c2)Cc2cc(COc3ccccc3)nn21` (stereo not shown) [Compound 42], for which the Emax on human mGluR5a receptor (setting [1]) stood at 69%. At human mGluR5a receptor, the pEC50 worked out at 6.86 and the EC50 was 138 nM.
